Numbers after ± are expanded uncertainties.
Details: 100 kPa, Liquid, Falling or rolling sphere viscometry

O [water]
Details | viscosity [mPa·s]
288.15 K | 1.122 ± 0.035
293.15 K | 0.99 ± 0.031
298.15 K | 0.882 ± 0.027
303.15 K | 0.793 ± 0.025
308.15 K | 0.719 ± 0.022
313.15 K | 0.656 ± 0.02
318.15 K | 0.602 ± 0.019

From the NIST ThermoML archive (doi:10.1021/acs.jced.8b01008)
